Data set [1] concerns HIV. The data set is described as follows: Inhibitory activity for HIV proliferation (HIV antigen expression in HUT-78 cells, indirect immunofluorescence assay). Type of data set: cell-based. Here is the method:
In the same culture as that for the MT-4 cells, HUT-78 cells (human T cell clone which is not destroyed by the infection of HIV and releases HIV) were infected with HIV in an amount of 0.4 HIV per HUT-78 cell. Immediately thereafter, a predetermined concentration of 1-[(2-hydroxyethoxy)methyl]-6-phenylthiothymine was added to the culture medium and the cells were cultured at 37° C.
Every four days, 3/4 of the culture solution was exchanged and after 12 days of incubation the number of the cells positive to an HIV antigen was counted by indirect immunofluorescence assay using HIV antiserum (positive to the coating protein and core protein of HIV) which had been obtained from an HIV-infected patient.
For comparison, a similar experiment was carried out by using 2',3'-dideoxyadenosine.

A further data set has as its system HUT-78 cells. The data set is described as follows: Toxicity to HUT-78 cells. The settings on record: 100 μM. Type of data set: cell-based, human.
For a further data set, the system named is host cell. The settings on record: background art statement; clinical treatment of HIV-infection; cited from earlier work.
In data set [2] the test system is HIV. The data set is described as follows: Inhibitory activity for HIV infection (preventing the death of 50% of the MT-4 cells). Type of data set: cell-based. The settings on record: Human immunodeficiency virus 1, MT4, 120 h, 5 days of incubation, 37° C., read-out: 50% inhibitory concentration of HIV infection. The protocol: (§1) In RPMI 1640 DM culture medium containing 20 mM of Hepes buffer solution, 10% fetal bovine serum and 20 µg/ml of gentamycin, 3×10^4 MT-4 cells (human T cell clone which is destroyed by the infection of HIV) were infected with HIV in an amount of 100 times as large as expected to cause 50% infection of the cells. Immediately thereafter, a predetermined amount of sample was added to the culture medium using 50 mg/ml sample solutions in dimethyl sulfoxide and the cells were cultured at 37° C.
(§2) After 5 days of incubation, the number of existing cells was counted to determine the concentration of the compound for preventing the death of 50% of the MT-4 cells. Separately, MT-4 cells were cultured in the same way as above except that they were not infected with HIV to determine the concentration of the compound at which 50% of the MT-4 cells were destroyed.

Data set [3] is described as follows: Cytotoxicity to MT-4 cells (not infected with HIV). It counts as cell-based. The settings on record: human, 5 days, 37° C., read-out: 50% cytotoxic concentration to MT-4 cells. Here is the method: as §1, §2

As to `Nc1ncnc2c1ncn2[C@H]1CC[C@@H](CO)O1` [2',3'-dideoxyadenosine, reference compound], in the data set with HIV [1] (at a similar concentration to the present compound (20 μM)), the “prevention of the expression of the HIV antigen” value is reported as “completely prevented the expression of the antigen”. Also, the “toxicity to the HUT-78 cells” value with HUT-78 cells is listed as “significant toxicity to the HUT-78 cells”.

As to `Cc1cn([C@H]2C[C@H](N=[N+]=[N-])[C@@H](CO)O2)c(=O)[nH]c1=O` [3'-deoxy-3'-azidothymidine], in the data set on host cell, the “toxicity in the host cell” value is on record as “considerable toxicity in the host cell”.

As to `Cc1c(Sc2ccccc2)n(COCCO)c(=O)[nH]c1=O` [compound 1, 1-[(2-hydroxyethoxy)methyl]-6-phenylthiothymine], the IC50 in the data set with HIV [2] amounted to 7 µM; with HIV [1] (Human immunodeficiency virus 1, HuT78, 288 h, 12 days of incubation, indirect immunofluorescence, read-out: 50% inhibitory concentration (expression of HIV antigens)), 5.2 µM. In data set [3], the CC50 at 120 h was over 250 µM. Moreover, the “prevention of the expression of the HIV antigens” value with HIV [1] (20 μM, 12 days of incubation) is on record as “completely prevented the expression of the antigens”. In the data set on HUT-78 cells, the “toxicity to the HUT-78 cells” value is given as “no toxicity to the HUT-78 cells was observed”.

With `Cc1cccc(Sc2c(C)c(=O)[nH]c(=O)n2COCCO)c1` [compound 7], the IC50 in the data set with HIV [2] was 5.1 µM. The CC50 at 120 h in data set [3] is over 250 µM.

Turning to `Cc1c(Sc2cccc(Cl)c2)n(COCCO)c(=O)[nH]c1=O` [compound 10], in the data set with HIV [2], the IC50 came out at 13 µM. Besides, the CC50 at 120 h in data set [3] is over 250 µM.

Take `COc1ccccc1Sc1c(C)c(=O)[nH]c(=O)n1COCCO` [compound 12]: the IC50 in the data set on HIV [2] was found to be 19 µM. In addition, the CC50 at 120 h in data set [3] is over 250 µM.

`COc1cccc(Sc2c(C)c(=O)[nH]c(=O)n2COCCO)c1` [compound 13]: the IC50 with HIV [2] came out at 22 µM. For the same molecule, the CC50 at 120 h in data set [3] was over 250 µM.

On to `Cc1c(Sc2cccc([N+](=O)[O-])c2)n(COCCO)c(=O)[nH]c1=O` [compound 17], for which, in the data set on HIV [2], the IC50 came to 34 µM. Also, the CC50 at 120 h in data set [3] is over 250 µM.

As to `Cc1c(SC2CCCCC2)n(COCCO)c(=O)[nH]c1=O` [compound 25], the IC50 with HIV [2] is 18 µM. In addition, the CC50 at 120 h in data set [3] is over 250 µM.

As for `Cc1c(Sc2ccccc2)n(COCCO)c(=S)[nH]c1=O` [compound 59, 1-[(2-hydroxyethoxy)methyl]-2-thio-6-phenylthiothymine], in the data set with HIV [2], the IC50 stood at 0.98 µM. For the same molecule, the CC50 at 120 h in data set [3] was 125 µM.

The record behind these values is patent US5112835A, “6-substituted acyclopyrimidine nucleoside derivatives and antiviral agents containing the same as active ingredient thereof” (Mitsubishi Kasei Corporation, priority 1988, dated 1992).
